Assay results as given in patent US8937068B2, “Pyridopyrazine derivatives and their use” (Zentaris GmbH, priority 2005, dated 2015).

How the values were obtained:
[1] = target: Erk2 (Homo sapiens, UniProt P28482); assay: Cell-free kinase assay (ALPHA technology), Erk2; type: biochemical; conditions: 10 μM ATP
Summary of the method: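 Recombinant tagged Erk2 kinase reactions were stopped with ALPHA bead mix […]. The signal was read after standing overnight. Controls were run in eight replicates and compounds in duplicate, and IC50 was fitted.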

[2] = target: PI3Kalpha (Homo sapiens (Human), UniProt P42336); assay: Cell-free kinase assay (ALPHA technology), PI3Kalpha; type: biochemical; conditions: 100 μM ATP
Summary of the method: (§1)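 Recombinant human GST- or His-tagged kinases were assayed for 1 h with ALPHA bead detection read after overnight standing. For PI3Kalpha: 1 ng enzyme, 100 μM ATP, 20 μM PIP2 in Hepes pH 7.4, detected by GST:Grp1/biotin-PIP3 competition. The p38alpha and Jnk assays followed the MAPK format (10 μM ATP, biotin-MBP, anti-phospho-MBP); IC50 from %-inhibition.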

[3] = target: p38alpha (Homo sapiens (Human), UniProt Q16539); assay: Cell-free kinase assay (ALPHA technology), p38alpha; type: biochemical; conditions: 10 μM ATP
[4] = test system: Jnk1 + Jnk2; assay: Cell-free kinase assay (ALPHA technology), Jnk1 + Jnk2; type: biochemical, human; conditions: 10 μM ATP
Summary of the method: as §1

[5] = test system: BxPC3; assay: XTT assay, anti-proliferative effect, BxPC3; type: cell-based; conditions: Homo sapiens, BXPC-3; 45 h incubation
Method: (§2) The principle of this test is based on the intracellular reduction of the tetrazolium dye XTT (sodium 3′-[1-(phenylaminocarbonyl)-3,4-tetrazolium]-bis(4-methoxy-6-nitro)benzene sulfonic acid, Sigma) to a formazan dye by mitochondrial dehydrogenases. The dye is only formed by metabolically active cells and its photometrically measurable intensity is a quantitative indicator for the presence of living cells. The reduction of dye formation by incubation of the cells with substances serves as a parameter for the anti-proliferative effect.
(§3) The tumour cell lines (ATCC) were injected into 96-well microtitre plates in a defined cell number (5000 cells/well for BxPC3 and Hct116; 10000 cells/well for MDA MB468) and then incubated overnight in an incubator at 37° C., 5% CO2 and 95% air humidity. The test substances were prepared as stock solutions (10 mM) in DMSO. […] The cell plates were then incubated for 45 h in an incubator at 37° C., 5% CO2 and 95% air humidity.
(§4) For the detection reaction the substrate XTT was mixed with PMS (N-Methyl dibenzopyrazine methylsulfate, Sigma) and added to the cells so that a final concentration of 325 μg XTT/ml and 2.5 μg PMS/ml was obtained. It was then incubated for 3 h at 37° C., 95% air humidity. The formazan salt formed by the cellular dehydrogenases could then be quantified by adsorption at 490 nm.
(§5) The % inhibition value was evaluated by means of the following formula from the values for the optical densities measured in each case at 490 nm:
(§6) Eight determinations were made for each control and two for the substance samples. The 0% control contains no cells, the 100% control (proliferation control) contains no test substance. The EC50 values were determined using GraphPadPrism.

[6] = test system: MDA-MB468; assay: XTT assay, anti-proliferative effect, MDA-MB468; type: cell-based; conditions: Homo sapiens, MDA-MB-468; 45 h incubation
Method: as §2, §3, §4, §5, §6

[7] = test system: Hct116; assay: XTT assay, anti-proliferative effect, Hct116; type: cell-based; conditions: Homo sapiens, HCT-116; 45 h incubation
Method: as §2, §3, §4, §5, §6

[8] = test system: Erk → pRsk; assay: Cellular substrate phosphorylation (Western Blotting), Erk substrate pRsk; type: cell-based; conditions: for inhibition at 50 µM: 5 h; for Erk inhibition / inhibition of the Erk substrate p-Rsk (in words): Western Blotting
Method: (§7) This method can be used to predict whether the kinase modulator under study also achieves the desired effect in a cellular context, i.e. in this case, a substrate protein downstream of the target kinase is investigated for its phosphorylation status. For this purpose, the cells incubated with substance are lysed and the total protein separated on a reducing polyacrylamide gel. The proteins are then transferred to a PVDF membrane by means of Western Blotting and the substrate bands sought are made visible with specific antibodies and a suitable detection method. The substrate proteins downstream of the target kinases are detected simultaneously with a respectively special anti-phospho-antibody and at the same time a total antibody which recognizes the substrate total protein. This simultaneous measurement can be made using the duplex technology of the ODYSSEY imagers (LiCOR). The intensity of the total substrate bands is used for normalising or quantifying the phosphorylation inhibition or activation.
(§8) Suitable tumour cell lines (e.g. BxPC3, Hct116 or MDA MB468) were injected into six-well microtitre plates in a defined cell number (e.g. 350 000 cells/well for BxPC3 and Hct116) in the respective standard complete medium and then incubated overnight at 37° C., 5% CO2 and 95% air humidity. The cells were then incubated for a further 24 h under serum-reduced conditions i.e. in the respective medium but with only 0.25% serum. The test substances were prepared as stock solutions (10 mM) in DMSO and incubated with the cells in final concentrations of 5, 15.8 and 50 μM for 5 h. This was followed by cell lysis in 25 mM Tris, 150 mM NaCl, 10 mM Na-pyrophosphate, 2 mM EGTA, 25 mM β-glycerophosphate, 25 mM NaF, 10% glycerine, 0.75% NP-40, 100 μM NaVO4 buffer. Following protein quantification by means of BCA (bicinchonic acid protein assay kit, Sigma) Assay, protein quantities of about 20 μg per track were separated on a Lämmli polyacrylamide gel and then transferred to a PVDF membrane (Millipore) by means of Semi-Dry Western-Blotting at 0.8 mA/cm^2 for 1 h. This was followed by pre-hybridisation of the membrane for 1 hour in I-block reagent (Applied Biosystems) and incubation overnight with the specific antibodies. To determine the Erk and PI3K inhibition, the respectively downstream substrates Rsk1 were detected with the total antibody (Rsk #sc-231g C-21, Santa Cruz) and the phospho-antibody (Phospho-p90RSK (S380) #9341, NEB Cell Signalling) and Akt was detected with the total antibody (Akt1 #sc-1618 C-20, Santa Cruz) and the phospho-antibody (Phospho-Akt (Ser 473) #9271, NEB Cell Signaling). After washing the membrane, secondary antibody incubation was carried out with anti-rabbit IR Dye 800 (#611-732-127, Rockland) for the phospho-antibody and anti-goat Alexa Fluor 680 (#A-21081, Molecular Probes) for the total protein-antibody. After incubating for 30 min at room temperature in the dark, the hybridisation of the detection antibody on the membrane was detected by scanning in the ODYSSEY imager (LiCOR).
(§9) The reduction of the fluorescence intensity of the phospho-substrate bands (pRsk and pAkt) is given in the table below as % inhibition and relates to the following formula:
(§10) The band intensity (fluorescence intensity) of the respective non-inhibited (without substance) phospho-substrates was used as 100% control.

[9] = test system: PI3K → pAkt; assay: Cellular substrate phosphorylation (Western Blotting), PI3K substrate pAkt; type: cell-based; conditions: for inhibition at 50 µM: 5 h; for PI3K inhibition / inhibition of the PI3K substrate p-Akt (in words): Western Blotting
Method: as §7, §8, §9, §10

[10] = test system: tumour cell lines (BxPC3, Hct116, MDA MB468); assay: XTT assay, anti-proliferative effect on the cell lines used; type: cell-based; conditions: compared to the Exemplary Embodiments
Method: as §2
The tumour cell lines (ATCC) were injected into 96-well microtitre plates in a defined cell number (5000 cells/well for BxPC3 and Hct116; 10000 cells/well for MDA MB468) and then incubated overnight in an incubator at 37° C., 5% CO2 and 95% air humidity. […]
as §4, with “It was then incubated for 3 h at 37° C., 95% air humidity.” left out
as §5
Eight determinations were made for each control and two for the substance samples. […] The EC50 values were determined using GraphPadPrism.

PI3Kalpha, sequence (P42336 whole entry): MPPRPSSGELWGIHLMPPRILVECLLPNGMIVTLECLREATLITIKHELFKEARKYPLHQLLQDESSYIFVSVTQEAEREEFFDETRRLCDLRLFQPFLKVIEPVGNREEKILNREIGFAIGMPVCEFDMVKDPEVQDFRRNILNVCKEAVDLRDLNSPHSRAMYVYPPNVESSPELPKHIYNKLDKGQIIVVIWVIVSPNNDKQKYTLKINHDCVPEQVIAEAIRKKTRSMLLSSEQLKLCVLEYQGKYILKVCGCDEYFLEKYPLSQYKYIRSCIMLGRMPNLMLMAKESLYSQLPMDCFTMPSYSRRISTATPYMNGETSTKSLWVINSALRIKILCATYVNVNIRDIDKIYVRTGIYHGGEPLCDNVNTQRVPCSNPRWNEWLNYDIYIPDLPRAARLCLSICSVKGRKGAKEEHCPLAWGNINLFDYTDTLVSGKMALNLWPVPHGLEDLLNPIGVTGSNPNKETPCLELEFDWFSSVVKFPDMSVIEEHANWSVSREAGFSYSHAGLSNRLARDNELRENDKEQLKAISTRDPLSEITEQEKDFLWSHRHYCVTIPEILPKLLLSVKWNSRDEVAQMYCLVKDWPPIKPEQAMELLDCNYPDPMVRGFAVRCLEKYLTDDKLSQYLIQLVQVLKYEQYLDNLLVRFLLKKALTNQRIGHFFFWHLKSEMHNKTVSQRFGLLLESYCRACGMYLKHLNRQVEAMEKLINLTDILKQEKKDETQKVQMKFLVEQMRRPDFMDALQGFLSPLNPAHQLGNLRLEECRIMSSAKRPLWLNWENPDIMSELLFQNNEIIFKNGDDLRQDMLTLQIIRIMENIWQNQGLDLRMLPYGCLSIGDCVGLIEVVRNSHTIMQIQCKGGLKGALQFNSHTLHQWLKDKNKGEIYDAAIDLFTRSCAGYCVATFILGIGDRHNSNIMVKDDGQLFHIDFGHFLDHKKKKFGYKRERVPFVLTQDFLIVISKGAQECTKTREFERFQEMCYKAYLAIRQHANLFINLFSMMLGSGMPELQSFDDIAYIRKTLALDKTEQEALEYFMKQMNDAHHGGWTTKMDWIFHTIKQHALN
PI3Kalpha, sequence (P27986 whole entry partner): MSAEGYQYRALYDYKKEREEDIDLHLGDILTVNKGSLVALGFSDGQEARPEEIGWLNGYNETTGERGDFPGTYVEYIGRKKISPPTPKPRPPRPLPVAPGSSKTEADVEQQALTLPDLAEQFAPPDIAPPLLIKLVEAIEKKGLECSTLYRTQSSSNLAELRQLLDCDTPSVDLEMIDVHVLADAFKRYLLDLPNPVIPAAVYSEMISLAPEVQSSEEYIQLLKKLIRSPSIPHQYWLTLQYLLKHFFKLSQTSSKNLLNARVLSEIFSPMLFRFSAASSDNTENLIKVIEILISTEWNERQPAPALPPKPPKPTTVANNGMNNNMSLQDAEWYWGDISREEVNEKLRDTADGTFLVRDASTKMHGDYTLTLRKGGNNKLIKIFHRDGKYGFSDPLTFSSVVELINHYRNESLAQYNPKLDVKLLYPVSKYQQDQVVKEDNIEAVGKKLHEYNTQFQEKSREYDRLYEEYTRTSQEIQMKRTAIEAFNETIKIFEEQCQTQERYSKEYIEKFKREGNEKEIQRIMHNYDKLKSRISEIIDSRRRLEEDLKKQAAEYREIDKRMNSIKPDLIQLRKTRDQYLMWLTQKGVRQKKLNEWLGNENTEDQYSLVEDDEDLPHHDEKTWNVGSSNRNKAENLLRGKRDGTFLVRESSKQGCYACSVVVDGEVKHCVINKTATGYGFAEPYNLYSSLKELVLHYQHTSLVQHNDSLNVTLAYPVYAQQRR
Erk2, sequence (P28482 2-360 limits assumed): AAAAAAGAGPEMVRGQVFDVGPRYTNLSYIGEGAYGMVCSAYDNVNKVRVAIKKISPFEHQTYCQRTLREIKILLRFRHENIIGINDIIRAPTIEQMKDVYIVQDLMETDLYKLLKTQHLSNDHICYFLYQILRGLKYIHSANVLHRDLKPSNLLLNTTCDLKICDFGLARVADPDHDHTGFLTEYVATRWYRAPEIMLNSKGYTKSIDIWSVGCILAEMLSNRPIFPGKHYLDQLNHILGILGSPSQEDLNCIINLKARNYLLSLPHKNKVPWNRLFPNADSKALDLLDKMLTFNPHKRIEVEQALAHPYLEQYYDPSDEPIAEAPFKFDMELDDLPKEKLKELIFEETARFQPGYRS
p38alpha, sequence (Q16539 whole entry): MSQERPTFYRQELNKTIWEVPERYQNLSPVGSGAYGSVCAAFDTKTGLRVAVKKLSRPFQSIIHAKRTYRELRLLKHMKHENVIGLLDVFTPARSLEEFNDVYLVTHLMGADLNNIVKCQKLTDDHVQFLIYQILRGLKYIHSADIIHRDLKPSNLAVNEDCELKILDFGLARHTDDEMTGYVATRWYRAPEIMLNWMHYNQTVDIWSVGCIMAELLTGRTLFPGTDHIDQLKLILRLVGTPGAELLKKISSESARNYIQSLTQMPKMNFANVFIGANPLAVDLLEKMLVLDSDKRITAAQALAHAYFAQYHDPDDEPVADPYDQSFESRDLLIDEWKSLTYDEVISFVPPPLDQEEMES

SMILES	IC50 [1] [µM]	IC50 [2] [µM]	IC50 [3] [µM]	IC50 [4] [µM]	EC50 [5] [µM]	EC50 [6] [µM]	EC50 [7] [µM]	inhibition at 50 µM [8] [%]	Erk inhibition / inhibition of the Erk substrate p-Rsk (in words) [8]	inhibition at 50 µM [9] [%]	PI3K inhibition / inhibition of the PI3K substrate p-Akt (in words) [9]	anti-proliferative effects on the cell lines used (in words) [10]
CCNC(=O)Nc1ccc2ncc(-c3cc(Cl)c(O)c(OC)c3)nc2n1 [Compound 156, 1-[3-(3-Chloro-4-hydroxy-5-methoxy-phenyl)-pyrido[2,3-b]pyrazin-6-yl]-3-ethyl-urea]	0.138	0.425	> 100	2.1	8.9	15	1.4					
CCNC(=O)Nc1ccc2ncc(-c3ccc(OC)c(OC)c3)nc2n1 [Compound 153, 1-[3-(3,4-Dimethoxy-phenyl)-pyrido[2,3-b]pyrazin-6-yl]-3-ethyl-urea]	0.939	0.612	> 100	6.7	> 25	24	6					
COC[C@H]1OC(=O)c2coc3c2[C@@]1(C)C1=C(C3=O)[C@@H]2CCC(=O)[C@@]2(C)C[C@H]1OC(C)=O [Wortmannin, reference compound]								0	no Erk or p-RSK inhibition	100	complete inhibition of the PI3K substrate pAkt	
CCNC(=O)Nc1ccc2ncc(Nc3ccc(O)cc3)nc2n1 [Compound 164, 1-Ethyl-3-[3-(4-hydroxy-phenylamino)-pyrido[2,3-b]pyrazin-6-yl]-urea]	19.6	0.444	> 100	24.3	> 50	5.2	> 25					
O=c1cc(N2CCOCC2)oc2c(-c3ccccc3)cccc12 [Ly294002, reference compound]					25	20	17	0	no Erk inhibition	40	only weak PI3K inhibition	weak anti-proliferative effects
CCNC(=O)Nc1ccc2ncc(Nc3cccc(C)c3)nc2n1 [Compound 157, 1-Ethyl-3-(3-m-tolylamino-pyrido-[2,3-b]pyrazin-6-yl)-urea]	> 100	0.348	> 100	28.5	> 25	3.5	4.4					
